From patent US20240009276A1, “S[…] OF IMMUNITY AGAINST RNA VIRUSES” (Health Research, Inc., priority 2020, published 2024)

What was measured:
[1] = system: Human epithelial cells (SW620); assay type: cell-based; parameters: key to synergy of combination with Poly-IC / synergy of combination with rintatolimod / synergy of combination with TNFα: Yes*: *Direct support by current data (Rintatolimod and poly-IC share binding to TLR3 but not other immunostimulatory properties/recognition receptors/signaling pathways^3)
SARS-CoV = conditions: mouse, in vivo; cited from earlier work
human coronavirus OC43 = conditions: human coronavirus OC43, BS-C-1 kidney cells; cited from earlier work
[2] = cited from earlier work

| Substance | synergy of combination with Poly-IC [1] | synergy of combination with TNFα [1] | synergy of combination with rintatolimod [1] | induction of genes involved in SARS-Cov elimination (OAS2, Ifit-1, Mx1, RIG-I, MDA5, TLR3, other ISGs) [1] | antiviral/survival effect (SARS-CoV) | EC50 (human coronavirus OC43) [µg/mL] | easily achievable concentration in humans [2] [µg/mL] |
| --- | --- | --- | --- | --- | --- | --- | --- |
| IFNγ | Yes* | Yes* | Yes* | – | – | – | – |
| polyinosinic:polycytidylic acid [poly-I:C, reference compound] | – | – | – | synergistic effects | – | – | – |
| IFNα | Yes* | Yes* | Yes* | – | significant antiviral/survival effect | – | – |
| rintatolimod [reference compound] | – | – | – | synergistic effects | significant antiviral/survival effect | 0.4 | 40 |
